Results on four compounds are retold here after patent US11420922B2, “Hydroxylated tropolone inhibitors of nucleotidyl transferases in herpesvirus and Hepatitis B and uses therefor” (Saint Louis University, priority 2015, dated 2022).

In general, CLint scaled refers to the rate of metabolic loss divided by the concentration. A word on the EC50: it is the concentration giving half of the maximal effect. The term CC50 denotes the concentration at which the toxic effect on the cells reaches its halfway point.

The nature of data set [1]: Mouse liver microsome assay. Format: in vitro ADME. To be noted: 1 μM in mouse liver microsomes; for ER: extraction ratio. The protocol:
Microsomal incubations are run at a final P450 concentration of 0.25 μM. The microsomal mixture is composed of 0.1M potassium phosphate containing 3.3 mM MgCl and 1 μM compound (final concentration). The mixture is prewarmed for 5 min at 37° C. To initiate the reaction a 12 mM stock of NAPDH (1.2 mM, final concentration) is added to the warmed microsomal mixture and aliquots are removed at 0, 5, 10, 20 and 30 min. Samples are quenched with ice cold acetonitrile containing internal standard and either 1.8 mM EDTA or EGTA (final concentration). Samples are vortexed and spun down at 3200 rpm for 5 min. The supernant is transferred to 96-deep well plates and run on LC/MS/MS.
For orientation: Liver microsomes are a subcellular fraction often used to study metabolism.

Data set [2] relates to patient-derived RNAseH enzymes (genotypes B, C and D). As to the kind of experiment: Biochemical RNAseH assay with patient-derived variant enzymes. Details: species or system Hepatitis B virus. To be noted: for inhibition of four genotype D RNAseH enzymes: compound at its IC50, FIGS. 7A & 7B; for inhibition of all 12 variant RNAseH enzymes, in words: compound at its IC50, genotypes B, C and D. An excerpt:
Four variant patient-derived RNAseH enzymes were expressed as recombinant enzymes, purified, and tested in an RNAseH assay with compounds #1 (FIG. 7A) and #46 (FIG. 7B) at their respective IC50s.
HBV has at least 8 genotypes differing in sequence by 8%. Genetic diversity in the RNAseH domain is about 6%, which is easily high enough to modulate viral sensitivity to RNAseH inhibitors. Therefore, the inventors tested the RNAseH inhibitors #1 [2-hydroxyisoquinoline-1,3(2H,4H)-dione], an HID, and #46 (β-thujaplicinol), an α-hydroxytropolone, for the ability to inhibit variant RNAseHs. Twelve purified, patient-derived RNAseH enzymes (4 from each genotypes B, C and D) were tested with the compounds at their respective IC50 values in a biochemical RNAseH assay. […] Therefore, HBV's high genetic variation is unlikely to present a substantial barrier to drug development.

The subject of data set [3] is HSV-1. As to conditions: 5 μM or less; cited from earlier work.
Data set [4] relates to HSV-2. To be noted: 5 μM or less; cited from earlier work.
The subject of another data set is HBV replication. The experiment in a line: Chou-Talalay combination of RNAseH inhibitors with Lamivudine against HBV replication. The data set is classed as cell-based, Hepatitis B virus. As to conditions: CI <1.0 synergy, ~1.0 additive, >1.0 antagonism. An excerpt:
Additive interactions are shown with the red line, synergistic interactions below the line, and antagonistic interactions are above the line.
Current nucleos(t)ide analog therapy for HBV has converted hepatitis type B from an implacably progressing illness to a controllable disease. However, patients are only very rarely cured, in part due to the incomplete inhibition of HBV replication. The inventors hypothesized that the novel RNaseH inhibitors would work synergistically with the existing nucleos(t)ide analogs because the two classes of drugs target physically distinct active sites on the viral polymerase protein. […] RNAseH inhibitors from two different chemical classes were employed, compound #1 [2-hydroxyisoquinoline-1,3(2H,4H)-dione], an HID, and #46 (β-thujaplicinol), an α-hydroxytropolone, were tested. Chou-Talaly analysis yields a combination index (CI). CI values<1.0 indicate synergy, CIs of approximately 1.0 indicate additive interactions, and CI values>1.0 indicate antagonism. CI values are calculated at various efficacy levels (EC50, EC75, EC90, and EC95), and a weighted CI value favoring higher efficacy levels is also generated. FIGS. 6A & 6B show the results of four experiments employing compound #1 and three with compound #46. […] Therefore, RNAseH inhibitors act strongly synergistically with an approved nucleos(t)ide analog drug against HBV.

Another data set relates to HSV. The experiment in a line: Anti-HSV SAR summary, HSV type not separated. Format: cell-based, herpes simplex virus. As to conditions: grouped by activity at 50, 5 and 0.5 μM. The protocol:
Compounds to be screened were diluted in PBS supplemented to contain 2% newborn calf serum and 1% glutamine, and added in 100 μL volume to confluent cell monolayers in 24-well cluster plates. Immediately thereafter HSV-1 and HSV-2, diluted in the supplemented PBS medium, were added to the wells in 50 μl volume such that the final concentration of compound was 50 μM and 5 μM and the multiplicity of infection was 0.1. The plates were incubated at 37° C. for 1 hour and then virus-containing inoculum was removed and the wells were washed once in PBS. Compounds, diluted to 50 μM and 5 μM in DMEM supplemented to contain 2% newborn calf serum and 1% each penicillin/streptomycin, were added at 0.5 mL/well. Plates were incubated at 37° C. an additional 23 hr, and then the plates were visually inspected through a phase contrast microscope for cytopathic effect, and for toxic effect. […] The entire contents of each well were collected by scraping. Samples were frozen at −80° C., and then subsequently thawed, sonicated, and infectious virus titer was determined by standard plaque assay on Vero cell monolayers. Because the compounds were dissolved at 10 mM in 100% DMSO, equivalent dilutions of DMSO were added to additional wells as a control for effects of the diluent. Each experiment was repeated once. EC50 values were determined as above except that serial dilutions of the compound to be tested were prepared starting at 50 μM. The inhibitory values were calculated by non-linear curve-fitting in GraphPad Prism.
A series of over 20 synthetic αHTs were synthesized and tested to both confirm the initial SAR, and to provide leads for further optimization pursuits (FIG. 5). […] Specifically, biphenyl-containing molecules #118 and 115 inhibit HSV replication by up to 4 log10 at 200 nM. The increased potency over close analogs #111 and 113 confirmed the importance of added lipophilicity.

Data set [5] concerns HSV-1. The experiment in a line: Anti-HSV-1 replication assay in Vero cells, titers by plaque assay. The data set is classed as cell-based, herpes simplex virus 1. As to conditions: Human alphaherpesvirus 1, Vero, 24 h; for log reduction at 5 µM: read-out: HSV-1 Log suppression 5 μM; for log reduction at 50 µM: read-out: HSV-1 Log suppression 50 μM. Put shortly: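 Vero monolayers infected with clinical HSV-1 or HSV-2 isolates at MOI 0.1 with compound present (50 and 5 μM final), 1 h at 37° C, then compound in DMEM for another 23 h. Yield titered by plaque assay on Vero cells; EC50 by nonlinear fit of serial dilutions starting at 50 μM, DMSO controls.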

The test system of data set [6] is TK-deficient mutant of HSV-2 strain 333, ΔTK-. As to the kind of experiment: Replication of acyclovir-resistant TK-deficient HSV-2 mutant in Vero cells. Format: cell-based, herpes simplex virus 2. As to conditions: 5 μM, 24 hr, FIG. 4. The protocol: FIGS. 4A & 4B. Sensitivity of thymidine kinase-deficient HSV-2 to αHT compounds. […] Duplicate cultures were collected 24 hours post-infection and infectious virus titers were determined by plaque assay. Titers in compound-treated samples were subtracted from DMSO-treated samples. Values are the averages±one standard error of the mean. α-Hydroxytropolones inhibit an ACV-resistant mutant of HSV-2. […] Log10 suppression was determined relative to the diluent control. Data are the averages of data from duplicate samples±ranges from one of two independent experiments at each concentration.
Vero cells were maintained in Dulbecco's modified Eagle's medium (DMEM) containing 3% newborn calf serum, 3% bovine growth serum, 2 mM L-glutamine and 100 IU/mL penicillin and 0.1 mg/mL streptomycin (P/S). HSV-1 #6 and HSV-2 #1 are de-identified clinical isolates from the Saint Louis University Hospital. Stocks were prepared after a single passage in cell culture and were titered by standard plaque assay (Knipe and Spang, 1982). Wild-type HSV-2 used in FIG. 3 was laboratory strain 333. The TK-deficient mutant of HSV-2 strain 333, ΔTK-, contains a 180-bp KpnI-KpnI deletion in the UL23 open reading frame that abrogates TK activity (McDermott, et al, 1984). ΔTK- was the generous gift of Jim Smiley. Virus stocks were grown and titered on Vero cells (Morrison and Knipe, 1996).
HSV TK-deficient mutants are therefore insensitive to ACV. […] Vero cells were infected with a laboratory strain of HSV-2 and an engineered TK-deficient mutant of the same strain.

The subject of data set [7] is HSV-2. As to the kind of experiment: Anti-HSV-2 replication assay in Vero cells, titers by plaque assay. Format: cell-based, herpes simplex virus 2. To be noted: for log reduction at 5 µM: read-out: HSV-2 Log suppression 5 μM; for log reduction at 50 µM: read-out: HSV-2 Log suppression 50 μM.
A short description of data set [8]: Quantitative Vero cell toxicity (MTT). As to conditions: African green monkey, Vero cells. The data set is classed as cell-based. The protocol:
(§1) Qualitative assessments of cytotoxicity were done visually by inspecting the cells in the primary screening assays. For the quantitative assays, cells were plated in 96-well plates at 1.0×10^4 per well. The next day the compounds were added at 0.78 to 100 μM in a final concentration of 1% (v/v) DMSO, and the cells were incubated for 24 hours under conditions identical to those employed for the viral replication inhibition assays. Mitochondrial toxicity was measured by incubating the cells with 0.25 mg/mL thiazolyl blue tetrazolium bromide (MTT, Sigma Aldrich Chemical Co.), the cultures were incubated for 60 min, metabolites were solubilized in acidic isopropanol, and absorbance was read at 570 nm. CC50 values were calculated by non-linear curve fitting using GraphPad Prism.
Quantitative toxicity measurements were conducted for all compounds that suppressed HSV replication by >2 log10 at 5 μM plus a number of compounds with lesser inhibitory activity for comparison. Toxicity was assessed by […]. Cells were plated in 96-well plates at 1.0×10^4 per well. The next day compound was added in concentrations ranging from 0.78 to 100 μM in a final concentration of 1% (v/v) DMSO. The cells were incubated for 24 h under conditions identical to those employed for the viral replication inhibition assays, and then mitochondrial activity was measured with the MTT assay (Sigma Aldrich) according to the manufacturer's instructions. Percent viability was determined for each compound concentration from the […], and then 50% cytotoxic concentrations (CC50) values were calculated by non-linear curve fitting using GraphPad Prism. Consistent with the subjective assessments of toxicity, all compounds selected for quantitative toxicity assessment had CC50 values≥50 μM under these conditions (Table 1).

In the next data set the test system is Vero cells. The experiment in a line: Qualitative (visual) Vero cell toxicity. As to conditions: visual inspection in primary screen, key to t, T not given. Format: cell-based. The protocol:
as §1
Compound toxicity was measured both subjectively and quantitatively. Subjective assessments were done by visually inspecting the infected cells at the end of the 24 h infection window through a phase-contrast microscope.

[9] abbreviates: Human alphaherpesvirus 2, Vero, 24 h.

Entries after “also recorded” stand apart in the source; their conditions may differ.

Take `CC(C)c1ccc(O)c(=O)c(O)c1` [Compound 46, β-thujaplicinol, reference compound]: in [1], the “CL ′hep” value came to 70 mL/min/kg, the “CL′int” value is reported as 318 mL/min/kg, the Non-P450 turn-over result was “No” and the “t ½” value amounted to 16 min. The ER in data set [1] stood at 0.78. In data set [2], the “inhibition of four genotype D RNAseH enzymes” value is reported as “about 50%” and the “inhibition of all 12 variant RNAseH enzymes, in words” value is “Equivalent results”. Moreover, the “suppression of HSV-1 replication in cell culture, in words” value with HSV-1 [3] was “strongly suppress”. The “suppression of HSV-2 replication in cell culture, in words” value in the data set with HSV-2 [4] is “strongly suppress”. Also, the “weighted CI value (combination index) with Lamivudine” value in the data set on HBV replication is listed as 0.44±0.3.

Take `O=C1Cc2ccccc2C(=O)N1O` [Compound 1, 2-hydroxyisoquinoline-1,3(2H,4H)-dione]: in data set [2], the “inhibition of four genotype D RNAseH enzymes” value is reported as “about 50%” and the “inhibition of all 12 variant RNAseH enzymes, in words” value was “Equivalent results”. The “weighted CI value (combination index) with Lamivudine” value in the data set on HBV replication worked out at 0.70±0.1.

On to `Cc1cc(O)c(=O)c(O)cc1-c1ccc(-c2ccccc2)cc1` [Compound 115], for which the “anti-HSV SAR group, in words” value in the data set on HSV was “highly inhibitory at much lower concentrations; also recorded: fully inhibitory at 0.5 μM”. Further, in data set [1], the Non-P450 turn-over entry is on record as “No”. In addition, in [1] (read-out: t ½), the half-life at 1 μM was found to be 18 min. Also, in data set [1], the ER is 0.76. In data set [1] (mouse, liver microsomes), this compound gave a CLint scaled at 1 μM of 285 mL/min/kg. The predicted hepatic clearance at 1 μM in data set [1] (mouse, liver microsomes, read-out: CL ′hep) is 68 mL/min/kg. Moreover, the EC50 with HSV-1 [5] (read-out: HSV-1 EC50) is 130 nM; in the data set on HSV-2 [7] (Human alphaherpesvirus 2, Vero, 24 h, read-out: HSV-2 EC50), 130 nM. Besides, the log reduction at 5 µM with HSV-1 [5] came to 4.26; with HSV-2 [7] (setting [9]) it was 4.52. Moreover, the results for the log reduction at 50 µM in the data set with HSV-1 [5] and in the data set with HSV-2 [7] (setting [9]) were 4.14 and 5.11, respectively. In data set [6], the “inhibition of the TK-mutant strain, in words” value is listed as “efficiently inhibited”. Moreover, in the data set on HSV-2 [7] (5 μM, laboratory strain, 24 hr, FIG. 4), the “inhibition of wild-type HSV-2, in words” value is listed as “efficiently inhibited”. This compound also had a CC50 at 24 h in [8] above 100000 nM.

Consider `CCOC(=O)c1c(C)cc(O)c(=O)c(O)c1C` [Compound 117], for which, in the data set on HSV, the “anti-HSV SAR group, in words” value is recorded as “weakest inhibitors”. For the same compound, in the data set with HSV-1 [5], the log reduction at 5 µM stood at 0.76 and the log reduction at 50 µM is 4.66. Further, the “Vero cell toxicity Qualitative” value with Vero cells is listed as “t?”. Further, in the data set on HSV-2 [7] (setting [9]), the log reduction at 5 µM was -0.16 and the log reduction at 50 µM is 4.97.
